Experimental data published in ChEMBL document CHEMBL1123212 (J Med Chem, 1986).

Assays:
Rattus norvegicus [1] = species: Rattus norvegicus; assay: animal or person
Description: In vivo inhibition of apomorphine induced hyperactivity in rats.

Rattus norvegicus [2] = species: Rattus norvegicus; assay: animal or person; remark: listed apart in the source
Description: In vivo inhibition of apomorphine induced stereotypy in rats.

in vivo = conditions: rat, ip
Description: Compound was tested for its acute toxicity in rat after ip administration

Rattus norvegicus [3] = assay: Compound was tested for anti-dopamine activity in vivo by its ability to inhibit apomorphine induced hyperactivity in rat; format: functional
Rattus norvegicus [4] = assay: Compound was tested for anti-dopamine activity in vivo by its ability to inhibit apomorphine induced stereotypy in rat; format: functional

Row | SMILES | ED50 (Rattus norvegicus [1]) | ED50 (Rattus norvegicus [2]) | LD50 (in vivo) | ED50 (Rattus norvegicus [3]) | ED50 (Rattus norvegicus [4])
1 | CCN1CCC[C@H]1CNC(=O)c1cc(Br)cc(Br)c1O | 28 µmol/kg | > 40 µmol/kg | – | – | –
2 | CCc1cc(Br)c(OC)c(C(=O)NC[C@@H]2CCCN2CC)c1O | 0.085 µmol/kg | 0.47 µmol/kg | 320 µmol/kg | – | –
3 | CCN1CCC[C@H]1CNC(=O)c1c(O)c(Br)cc(Br)c1OC | 0.65 µmol/kg | 1.48 µmol/kg | 450 µmol/kg | – | –
4 | CCN1CCC[C@H]1CNC(=O)c1c(O)c(C)cc(Cl)c1OC | 0.74 µmol/kg | 1.32 µmol/kg | – | – | –
5 | O=C(CCCN1CCC(O)(c2ccc(Cl)cc2)CC1)c1ccc(F)cc1 [HALOPERIDOL] | – | – | 93 µmol/kg | 0.29 µmol/kg | 0.27 µmol/kg
6 | CCN1CCC[C@@H]1CNC(=O)c1c(O)c(Cl)cc(Cl)c1OC | 1.07 µmol/kg | 32 µmol/kg | – | – | –
7 | CCc1cc(Cl)c(OC)c(C(=O)NC[C@@H]2CCCN2CC)c1O [ETICLOPRIDE] | 0.032 µmol/kg | 0.19 µmol/kg | 330 µmol/kg | – | –
8 | CCN1CCC[C@H]1CNC(=O)c1c(O)c(Br)cc(Cl)c1OC | 0.95 µmol/kg | 1.35 µmol/kg | – | – | –
9 | CCN1CCC[C@H]1CNC(=O)c1c(O)c(C)cc(C)c1OC | 1.86 µmol/kg | 3.1 µmol/kg | – | – | –
10 | CCN1CCC[C@H]1CNC(=O)c1c(O)c(Br)cc(F)c1OC | 0.16 µmol/kg | 0.42 µmol/kg | – | – | –
11 | CCc1cc(Br)c(O)c(C(=O)NC[C@@H]2CCCN2CC)c1OC | 0.87 µmol/kg | 1.45 µmol/kg | – | – | –
12 | CCc1cc(Cl)c(O)c(C(=O)NC[C@@H]2CCCN2CC)c1OC | 2.5 µmol/kg | 1.51 µmol/kg | – | – | –
13 | CCN1CCC[C@H]1CNC(=O)c1cc(Br)cc(Br)c1OC | 0.66 µmol/kg | 2.69 µmol/kg | – | – | –
14 | CCN1CCC[C@H]1CNC(=O)c1c(O)c(Cl)cc(Cl)c1OC [RACLOPRIDE] | 0.13 µmol/kg | 1.7 µmol/kg | 660 µmol/kg | – | –
15 | CCc1ccc(OC)c(C(=O)NC[C@@H]2CCCN2CC)c1O | 0.12 µmol/kg | 0.28 µmol/kg | 370 µmol/kg | – | –
16 | CCCc1cc(Cl)c(OC)c(C(=O)NC[C@@H]2CCCN2CC)c1O | 0.1 µmol/kg | 0.35 µmol/kg | – | – | –
17 | CCc1cc(F)c(OC)c(C(=O)NC[C@@H]2CCCN2CC)c1O | 0.065 µmol/kg | 0.31 µmol/kg | – | – | –
18 | CCc1cc(CC)c(OC)c(C(=O)NC[C@@H]2CCCN2CC)c1O | 0.076 µmol/kg | 0.46 µmol/kg | 530 µmol/kg | – | –
